Measured values: patent US20130190403A1, “ADMINISTRATION OF INTRAVENOUS IBUPROFEN TO TRAUMA PATIENTS” (Cumberland Pharmaceuticals Inc., priority 2012, published 2013)

Test system: traumatic rib fracture patients
Test: Retrospective review of traumatic rib fracture patients: intravenous ibuprofen plus narcotics versus narcotics alone
Format: in vivo, human

- complications associated with ibuprofen therapy (Treatment group): no significant complications
SMILES: CC(C)Cc1ccc(C(C)C(=O)O)cc1 (stereo not drawn) [ibuprofen, 2-(4-isobutylphenyl) propionic acid]
- daily narcotic requirement, Treatment Group versus Control Group (Day 1 or Day 2): did not differ
- daily narcotic requirement, Treatment Group versus Control Group (each of Days 3 through 7 (p<0.05)): significantly decreased
